Reference: patent US8541670B2, “Compositions and methods for inhibiting tumor cell growth” (priority 2007, dated 2013)
Where no end group is shown, it is not given here. red fluorescent dye = not defined here

Legend:
[1] = target: T1, Abl (Homo sapiens, UniProt P00519); test: Cell-based kinase assay, phosphorylation of intracellular substrate (Tyr-207 CRKL)
Method: As a specific substrate, the phosphorylation level of GSK-3[…] at Ser-9 was also evaluated. […] The decrease was specific to the AKT phosphorylation site on GSK-3[…] at Ser-9, since a change in the phosphorylation level of GSK-3[…] at Tyr-216 or GSK-3[…] at Tyr-279 was not observed. Moreover, the in vivo reduction of the phosphorylation of AKT substrates was more obvious at the injection site, since a significant change in the phosphorylation of AKT substrates in the frontal cortex or cerebellum between the two hemispheres was not observed. […] To test the specificity/selectivity of ZaTa as the inhibitor of AKT1 versus the other major kinases, a series of in vitro kinase assays was performed at IC50 for AKT1 and at ten times higher concentrations. […]
(§1) Phosphorylation sites for kinases analyzed herein included Ser-235/236 S6 (a substrate for p70S6K), Tyr-207 CRKL (a substrate for Abl; Zipfel, et al. (2004) supra), Ser-241 PDK1 (a substrate for PI3K), Tyr-1022/1023 JAK1 (a substrate for JAK3; Wang, et al. (2003) supra), Ser-421 Huntingtin (a substrate for SGK; Rangone, et al. (2004) supra), Tyr-783 PLC (a substrate for TrkB; Middlemas, et al. (1994) supra), and Ser-338 cRaf (a substrate for PAK3; King, et al. (1998) supra).

[2] = test system: N2a cells; test: Neurite count and live imaging of N2a neurons; format: cell-based
Method: Accordingly, the stability and phenotypic consequences of the AKT-PKAc complex was also analyzed in cultured neurons. N2a cells were treated with vehicle, ZaTa or control peptide for 24 hours. Media was removed after the 24-hour treatment and an equal number of cells from each treatment group was either cultured for another 24 hours without treatment, or lysed and subjected to immunoprecipitation with an antibody against AKT. Those cells cultured for another 24 hours were also harvested and subjected to immunoprecipitation. In parallel, the number of individual neurons with neurites was counted. […] Live images of N2a neurons were captured following treatment with vehicle or ZaTa (2 or 5 μM). […] ZaTa-mediated changes included a progressive loss of neurites, inhibition of new neurite formation, loss of cell motility, as well as formation of large cell colonies.

[3] = test system: the other kinases assayed; test: In vivo selectivity, western blot of phosphorylated substrates, other kinases inhibited in vitro at higher concentrations; parameters: species or system mouse; conditions: versus DMSO hemisphere
Method: To analyze in vivo selectivity, ZaTa was injected into one hemisphere and DMSO in the other hemisphere, as above, and a series of western blot analyses was preformed with phospho-specific antibodies which recognize a phosphorylated substrate or each one of the kinases that ZaTa inhibited at higher concentrations in vitro. […] Given the high functional and structural homology between p70S6K and AKT, the in vivo inhibitory effect of ZaTa on p70S6K was contemplated. Furthermore, the in vivo effect of ZaTa on the phosphorylation levels of substrates for PKA, PKC, CDKs using phospho-specific antibodies recognizing the phosphorylated consensus sites of these kinases was analyzed. In contrast to the consistent decrease in phosphorylation of AKT substrates, significant changes in the phosphorylation level of PKA, PKC and CDKs substrates was not observed after in vivo injection of ZaTa.
as §1

[4] = target: T1, Abl; test: In vitro kinase assay Abl; format: biochemical; conditions: ten times higher concentration than 0.1 μM
Method: As a specific substrate, the phosphorylation level of GSK-3[…] at Ser-9 was also evaluated. […] The decrease was specific to the AKT phosphorylation site on GSK-3[…] at Ser-9, since a change in the phosphorylation level of GSK-3[…] at Tyr-216 or GSK-3[…] at Tyr-279 was not observed. Moreover, the in vivo reduction of the phosphorylation of AKT substrates was more obvious at the injection site, since a significant change in the phosphorylation of AKT substrates in the frontal cortex or cerebellum between the two hemispheres was not observed. […] To test the specificity/selectivity of ZaTa as the inhibitor of AKT1 versus the other major kinases, a series of in vitro kinase assays was performed at IC50 for AKT1 and at ten times higher concentrations. A panel of the following 32 kinases was first tested in vitro using the active form of each kinase and a specific substrate: AKT2, AKT3, PKA, PKC[…], PKC, PI3K[…], PI3K[…], PI3K, SGK, PAK2, PAK3, SAPK2/p38, Abl, CaMKII, CDK1/cyclinB, CDK5/p35, CK1, CK2, CSK, GSK3[…], GSK3[…], JNK1[…]1, MAPK1, p70S6K, PDGFR[…], PDGFR[…], PDK1, PKG1[…], TrkB, JAK2, JAK3, and Syk. […] However, at ten times higher concentration, ZaTa inhibited AKT2 (63%), PI3K[…] (72%), p70S6K (64%), SGK (73%), PAK3 (83%), JAK3 (79%), TrkB (84%), and Abl (42%). […]

[5] = test system: axonal filament bundles in striatum; test: In vivo axon morphology, neurofilament-H staining of striatum after stereotactic injection; parameters: species or system mouse; conditions: 18 hours after surgery, versus DMSO hemisphere
Method: To determine the phenotypic effect of disrupting the AKT-PKAc complex in an in vivo setting, ZaTa peptide was stereotactically injected into the brain of a mouse and the animal was perfused 18 hours after recovery from surgery. Because AKT is known to have a role in axonal morphology (Markus, et al. (2002) Neuron 35:65-76), coronal sections of striatum were stained with neurofilament-H(NF—H), as an axonal-specific marker. […] PKA is also known to have a role in regeneration of growth cones on axons (Chierzi, et al. (2005) Eur. J. Neurosci. 21:2051-2062). Therefore, given the data provided herein, it is believed that a proper interaction between AKT and PKAc is involved in maintaining normal neuronal morphology.

T1 sequence (P00519 whole entry, species assumed): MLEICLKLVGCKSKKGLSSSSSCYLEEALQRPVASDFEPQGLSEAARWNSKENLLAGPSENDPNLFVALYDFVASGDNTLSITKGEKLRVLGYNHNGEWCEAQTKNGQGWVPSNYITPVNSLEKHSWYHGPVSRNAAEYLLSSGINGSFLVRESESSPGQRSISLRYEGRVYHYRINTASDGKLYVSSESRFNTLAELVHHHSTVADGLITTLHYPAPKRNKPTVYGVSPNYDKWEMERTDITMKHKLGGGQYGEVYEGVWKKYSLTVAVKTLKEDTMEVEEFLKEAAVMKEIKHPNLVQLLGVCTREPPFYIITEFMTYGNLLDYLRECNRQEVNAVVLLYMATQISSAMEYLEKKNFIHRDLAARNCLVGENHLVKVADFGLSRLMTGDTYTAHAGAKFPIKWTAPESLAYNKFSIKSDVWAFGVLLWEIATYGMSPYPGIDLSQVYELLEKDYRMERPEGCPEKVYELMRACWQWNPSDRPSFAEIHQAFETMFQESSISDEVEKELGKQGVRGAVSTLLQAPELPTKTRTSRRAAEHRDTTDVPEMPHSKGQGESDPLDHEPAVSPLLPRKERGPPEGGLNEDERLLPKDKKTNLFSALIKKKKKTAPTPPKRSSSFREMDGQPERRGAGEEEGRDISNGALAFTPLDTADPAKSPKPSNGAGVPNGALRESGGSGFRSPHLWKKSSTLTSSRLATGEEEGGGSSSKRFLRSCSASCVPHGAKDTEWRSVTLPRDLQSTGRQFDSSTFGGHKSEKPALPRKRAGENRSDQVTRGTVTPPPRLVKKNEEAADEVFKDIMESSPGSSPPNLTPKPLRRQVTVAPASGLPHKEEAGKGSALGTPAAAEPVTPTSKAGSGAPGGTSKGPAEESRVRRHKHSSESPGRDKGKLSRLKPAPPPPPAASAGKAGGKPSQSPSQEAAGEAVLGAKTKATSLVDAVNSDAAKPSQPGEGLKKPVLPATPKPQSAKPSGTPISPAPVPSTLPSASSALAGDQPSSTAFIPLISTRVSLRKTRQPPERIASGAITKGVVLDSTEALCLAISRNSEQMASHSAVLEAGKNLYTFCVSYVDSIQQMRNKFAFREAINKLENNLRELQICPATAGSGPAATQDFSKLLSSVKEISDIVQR

Substance	inhibition of Abl in cells [1]	morphology of N2a neurons, live images ([2]; 2 or 5 μM)	reversibility of neurite reduction ([2]; 24-hour incubation in the absence of ZaTa)	number of neurons with neurites ([2]; 24-hour treatment)	in vivo inhibitory effects on the other kinases assayed [3]	inhibition of Abl [4] [%]	staining pattern of axonal filament bundles (NF-H) in striatum [5]
labeled ZaTa: ZaTa peptide labeled with a red fluorescent dye at its N-terminus ({red fluorescent dye}-AKRVKGRTWTLCGTPEY; reading uncertain)	did not cause inhibition						
AKRVKGRTWTLCGTPEY [ZaTa]		dramatic morphological changes	reversible	significant reduction	No in vivo inhibitory effects	42	Changes in the staining pattern of axonal filament bundles
